From US20240174622A1, “COMPOUND AND RADIOACTIVE LABELING COMPOUND” (NIHON MEDI-PHYSICS CO., LTD., priority 2021, published 2024)

Legend:
LNCaP tumor = assay: Evaluation of suppressing tumor growth by 225Ac-labeling compound; assay type: in vivo, mouse; settings: 20 kBq, tail vein
Procedure: [^225Ac]Ac-PSMA-DA1 (20 kBq) or [^225Ac]Ac-PSMA-DB (20 kBq) obtained by the above method was dissolved in 5% ethanol-containing acetate buffer (158 mM, pH 6.5, 100 μL), and the solution was administered to LNCaP tumor-transplanted mice from the tail vein (n=6 or 5). As the control group, 100 μL of 5% ethanol-containing acetate buffer (158 mM, pH 6.5) was administered to LNCaP tumor-transplanted mice from the tail vein (n=4).
After administration of the ^225Ac-labeling compound, the tumor volume and body weight were measured 2 times per week. The tumor volumes on the day when administration of ^225Ac-labeling compound was started were 75.3±26.0, 80.6±20.8, and 91.1±15.9 mm^3 for the groups administered [^225Ac]Ac-PSMA-DA1, [^225Ac]Ac-PSMA-DB, and 5% ethanol-containing acetate buffer, respectively.

[1] = target: human serum albumin (HSA) (Homo sapiens, UniProt P02768); assay: Evaluation of binding to albumin (HSA solution, PBS control); settings: left to stand in HSA solution (45 mg/mL)
Procedure: Thereafter, the reaction liquids were added to a spin column (Sephadex G-100; manufactured by Cytiva), and centrifuged at 1500×g at 4° C. for 2 minutes. After separation, the radioactivity for each of the column and the eluate was measured with a gamma counter.
When a compound to be evaluated binds to albumin to form a composite, the compound passes through the column because of the increased molecular size.
As in Examples described above, PBS and human albumin were used to evaluate binding to albumin.
Thereafter, the reaction liquid was added to a spin column (Sephadex G-50; manufactured by Cytiva), and centrifuged at 1500×g at 4° C. for 2 minutes. After separation, the radioactivity of the column and the eluate was measured with a gamma counter.

[2] = system: LNCaP tumor-transplanted mouse; assay: Internal radioactivity distribution using LNCaP tumor-transplanted mouse; assay type: in vivo
Procedure: (§1) The animal test was performed in compliance with the guidelines of Kyoto University Animal Experiment Committee. Male CB17/IcrJcl-Prkdc^scid mice were purchased from CLEA Japan, Inc. The animals were kept under 12 h/12 h, day/night cycle conditions and fed ad libitum with food and water. LNCaP cells (1.0×10^7 cells/mouse) or PC-3 cells (1.0×10^7 cells/mouse) were suspended in a mixture of PBS and Matrigel manufactured by Corning Life Sciences (1:1, 150 μL) and the suspension was subcutaneously transplanted to the right shoulder of mice under isoflurane anesthesia. Thereafter, the mice were kept for 40 to 60 days.
LNCaP or PC-3 tumor-implanted mice were administered saline solutions (185 kBq, 100 μL) of [^111In]In-PSMA-DA1 or [^111In]In-PSMA-DB from the tail vein (n=3 each). Mice were euthanized 1, 4, 24, 48, 96, and 192 hours after administration. Thereafter, blood and each organ were recovered, and the mass and radioactivity of the organs were measured.
The percentage (% ID) of the radioactivity amount to the administered radioactivity amount (injected dose) is shown as the value (% ID/g) divided by the blood mass or the organ mass (g).
LNCaP tumor-implanted mice prepared by the same method as in Example 1-1 were administered a saline solution (241 kBq/100 μL) of [^111In]In-PtDA from the tail vein (n=3). Mice were euthanized 1, 24, and 48 hours after administration. Thereafter, blood and each organ were recovered, and the mass and radioactivity of the organs were measured.
LNCaP tumor-implanted mice prepared by the same method as in Example 1-1 were administered a saline solution (259 kBq/100 μL each) of each of the radiolabeled compounds in Examples 3-1 to 3-3 or Comparative Examples 2-1 to 2-2 from the tail vein (n=2 to 3). Mice were euthanized 1, 4, 24, 48, 96, and 192 hours after administration. Thereafter, blood and each organ were recovered, and the mass and radioactivity of the organs were measured.
as §1, with “LNCaP cells (4.3×10^6 cells/mouse) or” for “LNCaP cells (1.0×10^7 cells/mouse) or”, “PC-3 cells (3.3×10^6 cells/mouse) were” for “PC-3 cells (1.0×10^7 cells/mouse) were”, “shoulder of CB17/IcrJcl-Prkdc^scid mice under” for “shoulder of mice under”
Mice were euthanized 1, 4, 24, 48, 96, and 192 hours after administration. Thereafter, blood and each organ were recovered, and the mass and radioactivity of the organs were measured.
The results are shown in Table 12 (Mean value±standard deviation, n=3).

human serum albumin (HSA), sequence (P02768 25-609): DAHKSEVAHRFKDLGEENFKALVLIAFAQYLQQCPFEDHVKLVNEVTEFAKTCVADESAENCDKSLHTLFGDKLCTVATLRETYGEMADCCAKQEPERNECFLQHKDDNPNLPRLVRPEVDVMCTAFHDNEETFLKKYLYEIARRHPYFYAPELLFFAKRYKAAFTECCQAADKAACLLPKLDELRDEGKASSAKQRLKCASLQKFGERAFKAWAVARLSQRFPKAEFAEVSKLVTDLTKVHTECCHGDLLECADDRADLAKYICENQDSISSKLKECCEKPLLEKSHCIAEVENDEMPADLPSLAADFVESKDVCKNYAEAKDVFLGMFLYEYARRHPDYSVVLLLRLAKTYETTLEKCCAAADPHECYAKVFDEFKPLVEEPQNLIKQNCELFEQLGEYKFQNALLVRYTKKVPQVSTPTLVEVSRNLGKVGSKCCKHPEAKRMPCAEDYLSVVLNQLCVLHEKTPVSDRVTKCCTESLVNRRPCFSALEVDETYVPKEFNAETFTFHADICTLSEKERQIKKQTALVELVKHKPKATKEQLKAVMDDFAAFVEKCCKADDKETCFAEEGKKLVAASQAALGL

O=C([O-])CN1CCN(C(CCC(=O)NCCCC[C@H](NC(=O)N[C@@H](CCC(=O)O)C(=O)O)C(=O)O)C(=O)[O-])CCN(CC(=O)[O-])CCN(C(CCC(=O)N[C@@H](CCCCNC(=O)CCCc2ccc(I)cc2)C(=O)O)C(=O)[O-])CC1.[225Ac+3] (stereo partly shown) [[^225Ac]Ac-PSMA-DA1]
body weight reduction (LNCaP tumor): transient
growth suppression continuously observed until (LNCaP tumor): 6 weeks
tumor growth compared with the control group (LNCaP tumor): significantly suppressed

O=C([O-])CN(Cc1cccc(C(=O)[O-])n1)C[C@H](Cc1ccc(NC(=O)CCCCCNC(=O)CCC(=O)NCCCC[C@H](NC(=O)N[C@@H](CCC(=O)O)C(=O)O)C(=O)O)cc1)N(CC(=O)[O-])Cc1cccc(C(=O)[O-])n1.[111In+3] [[^111In]In-Octapa-1, reference compound]
radioactivity in the eluate (in words) [1]: low
Blood ([2]; 1 h after administration): 0.48 ± 0.09 % ID/g
Brain ([2]; 1 h after administration): 0.02 ± 0.00 % ID/g
Heart ([2]; 1 h after administration): 0.32 ± 0.08 % ID/g
Intestine ([2]; 1 h after administration): 0.40 ± 0.13 % ID/g
Kidney ([2]; 1 h after administration): 322 ± 42.8 % ID/g
LNCaP Tumor ([2]; 1 h after administration): 9.72 ± 1.65 % ID/g
Liver ([2]; 1 h after administration): 0.36 ± 0.13 % ID/g
Lung ([2]; 1 h after administration): 0.99 ± 0.22 % ID/g
Muscle ([2]; 1 h after administration): 0.20 ± 0.01 % ID/g
Pancreas ([2]; 1 h after administration): 0.62 ± 0.19 % ID/g
Spleen ([2]; 1 h after administration): 10.9 ± 5.59 % ID/g
Stomach (% ID) ([2]; 1 h after administration): 0.08 ± 0.01 % ID
Blood ([2]; 4 h after administration): 0.21 ± 0.18 % ID/g
Brain ([2]; 4 h after administration): 0.02 ± 0.01 % ID/g
Heart ([2]; 4 h after administration): 0.18 ± 0.03 % ID/g
Intestine ([2]; 4 h after administration): 3.50 ± 1.21 % ID/g
Kidney ([2]; 4 h after administration): 112 ± 54.6 % ID/g
LNCaP Tumor ([2]; 4 h after administration): 4.73 ± 0.40 % ID/g
Liver ([2]; 4 h after administration): 0.13 ± 0.02 % ID/g
Lung ([2]; 4 h after administration): 0.23 ± 0.10 % ID/g
Muscle ([2]; 4 h after administration): 0.10 ± 0.02 % ID/g
Pancreas ([2]; 4 h after administration): 0.24 ± 0.07 % ID/g
Spleen ([2]; 4 h after administration): 3.55 ± 1.75 % ID/g
Stomach (% ID) ([2]; 4 h after administration): 0.37 ± 0.22 % ID
Blood ([2]; 24 h after administration): 0.02 % ID/g
Brain ([2]; 24 h after administration): 0.04 ± 0.04 % ID/g
Heart ([2]; 24 h after administration): 0.04 ± 0.01 % ID/g
Intestine ([2]; 24 h after administration): 0.27 ± 0.08 % ID/g
Kidney ([2]; 24 h after administration): 24.9 ± 10.9 % ID/g
LNCaP Tumor ([2]; 24 h after administration): 2.00 ± 0.61 % ID/g
Liver ([2]; 24 h after administration): 0.06 ± 0.01 % ID/g
Lung ([2]; 24 h after administration): 0.13 ± 0.06 % ID/g
Muscle ([2]; 24 h after administration): 0.01 ± 0.01 % ID/g
Pancreas ([2]; 24 h after administration): 0.12 ± 0.03 % ID/g
Spleen ([2]; 24 h after administration): 2.48 ± 1.44 % ID/g
Stomach (% ID) ([2]; 24 h after administration): 0.03 ± 0.01 % ID
Blood ([2]; 48 h after administration): 0.00 ± 0.00 % ID/g
Brain ([2]; 48 h after administration): 0.01 ± 0.00 % ID/g
Heart ([2]; 48 h after administration): 0.02 ± 0.03 % ID/g
Intestine ([2]; 48 h after administration): 0.52 ± 0.33 % ID/g
Kidney ([2]; 48 h after administration): 7.48 ± 1.23 % ID/g
LNCaP Tumor ([2]; 48 h after administration): 0.58 ± 0.11 % ID/g
Liver ([2]; 48 h after administration): 0.04 ± 0.01 % ID/g
Lung ([2]; 48 h after administration): 0.06 ± 0.02 % ID/g
Muscle ([2]; 48 h after administration): 0.01 ± 0.02 % ID/g
Pancreas ([2]; 48 h after administration): 0.05 ± 0.01 % ID/g
Spleen ([2]; 48 h after administration): 1.64 ± 0.53 % ID/g
Stomach (% ID) ([2]; 48 h after administration): 0.07 ± 0.04 % ID
Blood ([2]; 96 h after administration): 0.02 ± 0.01 % ID/g
Brain ([2]; 96 h after administration): 0.01 ± 0.00 % ID/g
Heart ([2]; 96 h after administration): 0.03 ± 0.00 % ID/g
Intestine ([2]; 96 h after administration): 0.13 ± 0.05 % ID/g
Kidney ([2]; 96 h after administration): 7.24 ± 3.00 % ID/g
LNCaP Tumor ([2]; 96 h after administration): 0.72 ± 0.11 % ID/g
Liver ([2]; 96 h after administration): 0.08 ± 0.02 % ID/g
Lung ([2]; 96 h after administration): 0.09 ± 0.03 % ID/g
Muscle ([2]; 96 h after administration): 0.03 ± 0.04 % ID/g
Pancreas ([2]; 96 h after administration): 0.04 ± 0.00 % ID/g
Spleen ([2]; 96 h after administration): 2.06 ± 0.88 % ID/g
Stomach (% ID) ([2]; 96 h after administration): 0.03 ± 0.01 % ID
Blood ([2]; 192 h after administration): 0.00 % ID/g
Brain ([2]; 192 h after administration): 0.01 % ID/g
Heart ([2]; 192 h after administration): 0.01 % ID/g
Intestine ([2]; 192 h after administration): 0.02 % ID/g
Kidney ([2]; 192 h after administration): 2.16 % ID/g
LNCaP Tumor ([2]; 192 h after administration): 0.36 % ID/g
Liver ([2]; 192 h after administration): 0.05 % ID/g
Lung ([2]; 192 h after administration): 0.04 % ID/g
Muscle ([2]; 192 h after administration): 0.02 % ID/g
Pancreas ([2]; 192 h after administration): 0.05 % ID/g
Spleen ([2]; 192 h after administration): 0.85 % ID/g
Stomach (% ID) ([2]; 192 h after administration): 0.01 % ID
